Results: PMC12985355 (Journal of the American Chemical Society, 2025)
Where two headings read alike, the source gives them in different places.

Experiments:
[1] = target: CntL (Staphylococcus aureus, UniProt A0A0H3JXA8); assay: thermal shift assay; format: binding
[2] = target: T1, NAT (SAM:nocardicin 3-ACP transferase) (Nocardia uniformis, UniProt Q9RAH6); assay: thermal shift assay; format: binding; details: further addition to enzyme with nocardicin E (2)
T1 sequence (Q9RAH6 1-301): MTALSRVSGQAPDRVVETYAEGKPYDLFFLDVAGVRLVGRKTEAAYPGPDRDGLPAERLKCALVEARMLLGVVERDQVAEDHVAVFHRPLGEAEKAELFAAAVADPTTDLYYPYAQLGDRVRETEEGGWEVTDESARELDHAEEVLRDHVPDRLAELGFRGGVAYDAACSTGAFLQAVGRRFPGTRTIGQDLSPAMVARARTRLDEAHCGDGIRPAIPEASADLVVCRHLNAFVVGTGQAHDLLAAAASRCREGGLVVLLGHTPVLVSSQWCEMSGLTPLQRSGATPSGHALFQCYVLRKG

[3] = target: T1, NAT (SAM:nocardicin 3-ACP transferase); assay: 3-ACP transfer, LC-MS; format: biochemical; details: SAM as co-substrate; very low yield
[4] = target: T1, NAT (SAM:nocardicin 3-ACP transferase); assay: thermal shift assay; format: binding; details: binds to a similar extent as SAM; no turnover with nocardicin E

Sequence of CntL (A0A0H3JXA8 whole entry): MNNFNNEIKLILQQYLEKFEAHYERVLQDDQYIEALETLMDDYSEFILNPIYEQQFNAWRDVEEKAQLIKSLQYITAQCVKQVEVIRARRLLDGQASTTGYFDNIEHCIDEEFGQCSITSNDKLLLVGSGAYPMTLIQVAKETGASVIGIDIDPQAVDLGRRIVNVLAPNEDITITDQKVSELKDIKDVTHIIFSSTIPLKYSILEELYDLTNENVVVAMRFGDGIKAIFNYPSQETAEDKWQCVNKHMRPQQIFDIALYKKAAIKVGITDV

N[C@H](Cc1c[nH]cn1)C(=O)O [D-histidine]
melting point ([1]; with SAM present, no shift with da-SAM): the melting point increased when CntL was combined with SAM and D-his

C[S+](CC[C@H](N)C(=O)O)C[C@H]1O[C@@H](n2cnc3c(N)ncnc32)[C@H](O)[C@@H]1O (stereo partly drawn) [SAM]
melting point [1]: da-SAM can bind to the enzyme to the same extent as SAM
increase in melting temperature [2]: 7 °C

CC1(C)S[C@@H]2[C@H](NC(=O)[C@H](N)c3ccc(O)cc3)C(=O)N2[C@H]1C(=O)O [amoxicillin]
3-ACP transfer, LC-MS [3]: NAT accepted both of them, to produce the 3-ACP-β-lactam products

CC1=C(C(=O)O)N2C(=O)[C@@H](NC(=O)[C@H](N)c3ccc(O)cc3)[C@H]2SC1 [cefadroxil]
3-ACP transfer, LC-MS [3]: NAT accepted both of them, to produce the 3-ACP-β-lactam products

C[S+](CCCC(=O)[O-])C[C@H]1O[C@@H](n2cnc3c(N)ncnc32)[C@H](O)[C@@H]1O (stereo partly drawn) [deamino-SAM]
melting temperature [4]: deamino-SAM can bind to the enzyme to a similar extent as SAM
